From EP0302824A2 (priority 1987, dated 1989)

Legend:
corn rootworms = test: Field control of corn rootworms by insecticide/polymer combinations applied to the seed; format: in vivo, Diabrotica spp.; conditions: maize G 4733, 0-6 scale, 63 days after planting
[1] = system: Heliothis virescens larvae; test: Systemic activity of seed applied furathiocarb, larvae caged on maize leaves; format: in vivo
Experimental: This example includes the results of three test series using different maize cultivars F7 x F2, Centaurus and Arjuna. The basic experimental procedure is that used in example 20 therefore only differences are mentioned here.
Seeds of the hybrid F7 x F2 are treated with 10 g/kg furathiocarb in either PVAc/PVAl or association polymer systems. Treatment techniques are described earlier. Seeds are sown in 4 soil types: 100% quartz sand, 98% quartz sand plus 2% peat, 95% quartz sand plus 5% peat and 90% quartz sand plus 10% peat. Soil moisture is maintained at 10% for the 100% and 98% sand mixtures and at 20% for the other two soil types. All percentages are based on dry weight.
Insecticidal activity is tested by caging 5 first instar Heliothis virescens larvae on each leaf of the maize plants. The insects are caged on the leaves at 9 and 14 days after planting and are allowed to feed for 5 and 3 days respectively. The test is evaluated by counting surviving larvae and by visually assessing feeding damage. To achieve this consistently, the leaf is compared to standard diagrams and the percentage eaten is estimated as 0, 1, 2, 5, 10, 20 or 50% or the total area.
Seeds of the hybrid Centaurus are treated with both 4 and 10 g/kg furathiocarb in either PVAc/PVAl or association polymer systems. Seeds are sown in two soil types either earth from Stein, Canton Aargau, Switzerland (exact description given earlier) or in a 98% sand 2% peat mixture. Moisture content is 20% of dry weight for the former and 10% for the latter. H. virescens is again used to test insecticidal activity. The larvae are caged on the leaves either 8 or 14 days after planting and are allowed to feed for 4 days.
Seeds of the cultivar Arjuna are treated with 2.5 and 10 g/kg furathiocarb in either PVAc/PVAl or association polymer systems. Seeds are sown in the two soil types used in the tests of the hybrid Centaurus. H. virescens is again the test insect and the larvae are caged on individual leaves 10 and 14 days after planting; they are allowed to feed for 4 days. Only 10 g rates are tested at the second date.

[2] = Solubilization of furathiocarb in aqueous surfactant solutions, UV spectroscopy; format: physicochemical; conditions: for enhancement in the solubility (increase): 1000 ppm
Experimental: This example compares the solubilization of the biocide furathiocarb in a variety of aqueous surfactant solutions (1000 ppm). Experimental Note: 5 µl of furathiocarb (∼ 0.0060-0.0070 g) is pipetted into 10 ml aqueous solutions and stirred overnight. Analysis is performed by UV spectroscopy.

[3] = cultivar Arjuna, 98% Sand, time 1 week, Association Polymer, dosage 2.5 g
[4] = cultivar Arjuna, 98% Sand, time 1 week, Association Polymer, dosage 10 g
[5] = cultivar Arjuna, 98% Sand, time 1 week, PVAc/PVAl, dosage 2.5 g
[6] = cultivar Arjuna, 98% Sand, time 1 week, PVAc/PVAl, dosage 10 g
[7] = cultivar Arjuna, 98% Sand, time 2 weeks, Association Polymer, dosage 10 g
[8] = cultivar Arjuna, 98% Sand, time 2 weeks, PVAc/PVAl, dosage 10 g
[9] = cultivar Arjuna, Stein Earth, time 1 week, Association Polymer, dosage 2.5 g
[10] = cultivar Arjuna, Stein Earth, time 1 week, Association Polymer, dosage 10 g
[11] = cultivar Arjuna, Stein Earth, time 1 week, PVAc/PVAl, dosage 2.5 g
[12] = cultivar Arjuna, Stein Earth, time 1 week, PVAc/PVAl, dosage 10 g
[13] = cultivar Arjuna, Stein Earth, time 2 weeks, Association Polymer, dosage 10 g
[14] = cultivar Arjuna, Stein Earth, time 2 weeks, PVAc/PVAl, dosage 10 g
[15] = hybrid Centaurus, 98% Sand, time 1 week, Association Polymer, dosage 4 g
[16] = hybrid Centaurus, 98% Sand, time 1 week, Association Polymer, dosage 10 g
[17] = hybrid Centaurus, 98% Sand, time 1 week, PVAc/PVAl, dosage 4 g
[18] = hybrid Centaurus, 98% Sand, time 1 week, PVAc/PVAl, dosage 10 g
[19] = hybrid Centaurus, 98% Sand, time 2 weeks, Association Polymer, dosage 4 g
[20] = hybrid Centaurus, 98% Sand, time 2 weeks, Association Polymer, dosage 10 g
[21] = hybrid Centaurus, 98% Sand, time 2 weeks, PVAc/PVAl, dosage 4 g
[22] = hybrid Centaurus, 98% Sand, time 2 weeks, PVAc/PVAl, dosage 10 g
[23] = hybrid Centaurus, Stein Earth, time 1 week, Association Polymer, dosage 4 g
[24] = hybrid Centaurus, Stein Earth, time 1 week, Association Polymer, dosage 10 g
[25] = hybrid Centaurus, Stein Earth, time 1 week, PVAc/PVAl, dosage 4 g
[26] = hybrid Centaurus, Stein Earth, time 1 week, PVAc/PVAl, dosage 10 g
[27] = hybrid Centaurus, Stein Earth, time 2 weeks, Association Polymer, dosage 4 g
[28] = hybrid Centaurus, Stein Earth, time 2 weeks, Association Polymer, dosage 10 g
[29] = hybrid Centaurus, Stein Earth, time 2 weeks, PVAc/PVAl, dosage 4 g
[30] = hybrid Centaurus, Stein Earth, time 2 weeks, PVAc/PVAl, dosage 10 g
[31] = hybrid F7 x F2, 10 g/kg, 90% Sand, time 1 week, Association Polymer
[32] = hybrid F7 x F2, 10 g/kg, 90% Sand, time 1 week, PVAc/PVAl
[33] = hybrid F7 x F2, 10 g/kg, 90% Sand, time 2 weeks, Association Polymer
[34] = hybrid F7 x F2, 10 g/kg, 90% Sand, time 2 weeks, PVAc/PVAl
[35] = hybrid F7 x F2, 10 g/kg, 95% Sand, time 1 week, Association Polymer
[36] = hybrid F7 x F2, 10 g/kg, 95% Sand, time 1 week, PVAc/PVAl
[37] = hybrid F7 x F2, 10 g/kg, 95% Sand, time 2 weeks, Association Polymer
[38] = hybrid F7 x F2, 10 g/kg, 95% Sand, time 2 weeks, PVAc/PVAl
[39] = hybrid F7 x F2, 10 g/kg, 98% Sand, time 1 week, Association Polymer
[40] = hybrid F7 x F2, 10 g/kg, 98% Sand, time 1 week, PVAc/PVAl
[41] = hybrid F7 x F2, 10 g/kg, 98% Sand, time 2 weeks, Association Polymer
[42] = hybrid F7 x F2, 10 g/kg, 98% Sand, time 2 weeks, PVAc/PVAl
[43] = hybrid F7 x F2, 10 g/kg, 100% Sand, time 1 week, Association Polymer
[44] = hybrid F7 x F2, 10 g/kg, 100% Sand, time 1 week, PVAc/PVAl
[45] = hybrid F7 x F2, 10 g/kg, 100% Sand, time 2 weeks, Association Polymer
[46] = hybrid F7 x F2, 10 g/kg, 100% Sand, time 2 weeks, PVAc/PVAl

CCCCOC(=O)N(C)SN(C)C(=O)Oc1cccc2c1OC(C)(C)C2 [furathiocarb]
Ratings for corn rootworm damage (corn rootworms; Granule, 0.1 g m⁻¹): 3.2
Ratings for corn rootworm damage (corn rootworms; seed treatment Association Polymer, 10 g/kg): 4.5
Ratings for corn rootworm damage (corn rootworms; seed treatment PVAc/PVAl, 10 g/kg): 4.1
Ratings for corn rootworm damage (corn rootworms; seed treatment PVAc/PVAl, 30 g/kg): 4.8
Percent survival of H. virescens larvae [1, 3]: 4%
Scores of damage caused by H. virescens larvae [1, 3]: 2.1
Percent survival of H. virescens larvae [1, 4]: 6%
Scores of damage caused by H. virescens larvae [1, 4]: 2.5
Percent survival of H. virescens larvae [1, 5]: 50%
Scores of damage caused by H. virescens larvae [1, 5]: 4.9
Percent survival of H. virescens larvae [1, 6]: 28%
Scores of damage caused by H. virescens larvae [1, 6]: 3.4
Percent survival of H. virescens larvae [1, 7]: 8%
Scores of damage caused by H. virescens larvae [1, 7]: 2.7
Percent survival of H. virescens larvae [1, 8]: 37%
Scores of damage caused by H. virescens larvae [1, 8]: 4.7
Percent survival of H. virescens larvae [1, 9]: 30%
Scores of damage caused by H. virescens larvae [1, 9]: 3.3
Percent survival of H. virescens larvae [1, 10]: 2%
Scores of damage caused by H. virescens larvae [1, 10]: 1.8
Percent survival of H. virescens larvae [1, 11]: 22%
Scores of damage caused by H. virescens larvae [1, 11]: 3.3
Percent survival of H. virescens larvae [1, 12]: 8%
Scores of damage caused by H. virescens larvae [1, 12]: 2.1
Percent survival of H. virescens larvae [1, 13]: 9%
Scores of damage caused by H. virescens larvae [1, 13]: 2.7
Percent survival of H. virescens larvae [1, 14]: 21%
Scores of damage caused by H. virescens larvae [1, 14]: 3.5
Percent survival of H. virescens larvae [1, 15]: 2%
Scores of damage caused by H. virescens larvae [1, 15]: 1.5
Percent survival of H. virescens larvae [1, 16]: 0%
Scores of damage caused by H. virescens larvae [1, 16]: 1.3
Percent survival of H. virescens larvae [1, 17]: 8%
Scores of damage caused by H. virescens larvae [1, 17]: 1.9
Percent survival of H. virescens larvae [1, 18]: 12%
Scores of damage caused by H. virescens larvae [1, 18]: 2.0
Percent survival of H. virescens larvae [1, 19]: 31%
Scores of damage caused by H. virescens larvae [1, 19]: 4.1
Percent survival of H. virescens larvae [1, 20]: 13%
Scores of damage caused by H. virescens larvae [1, 20]: 2.8
Percent survival of H. virescens larvae [1, 21]: 46%
Scores of damage caused by H. virescens larvae [1, 21]: 5.5
Percent survival of H. virescens larvae [1, 22]: 51%
Scores of damage caused by H. virescens larvae [1, 22]: 5.8
Percent survival of H. virescens larvae [1, 23]: 7%
Scores of damage caused by H. virescens larvae [1, 23]: 1.9
Percent survival of H. virescens larvae [1, 24]: 10%
Scores of damage caused by H. virescens larvae [1, 24]: 2.0
Percent survival of H. virescens larvae [1, 25]: 25%
Scores of damage caused by H. virescens larvae [1, 25]: 2.8
Percent survival of H. virescens larvae [1, 26]: 10%
Scores of damage caused by H. virescens larvae [1, 26]: 2.0
Percent survival of H. virescens larvae [1, 27]: 49%
Scores of damage caused by H. virescens larvae [1, 27]: 4.4
Percent survival of H. virescens larvae [1, 28]: 22%
Scores of damage caused by H. virescens larvae [1, 28]: 3.0
Percent survival of H. virescens larvae [1, 29]: 32%
Scores of damage caused by H. virescens larvae [1, 29]: 3.9
Percent survival of H. virescens larvae [1, 30]: 27%
Scores of damage caused by H. virescens larvae [1, 30]: 3.4
Percent survival of H. virescens larvae [1, 31]: 34%
Scores of damage caused by H. virescens larvae [1, 31]: 4.9
Percent survival of H. virescens larvae [1, 32]: 48%
Scores of damage caused by H. virescens larvae [1, 32]: 6.0
Percent survival of H. virescens larvae [1, 33]: 42%
Scores of damage caused by H. virescens larvae [1, 33]: 4.2
Percent survival of H. virescens larvae [1, 34]: 61%
Scores of damage caused by H. virescens larvae [1, 34]: 4.9
Percent survival of H. virescens larvae [1, 35]: 16%
Scores of damage caused by H. virescens larvae [1, 35]: 3.2
Percent survival of H. virescens larvae [1, 36]: 48%
Scores of damage caused by H. virescens larvae [1, 36]: 6.4
Percent survival of H. virescens larvae [1, 37]: 50%
Scores of damage caused by H. virescens larvae [1, 37]: 4.4
Percent survival of H. virescens larvae [1, 38]: 64%
Scores of damage caused by H. virescens larvae [1, 38]: 4.8
Percent survival of H. virescens larvae [1, 39]: 16%
Scores of damage caused by H. virescens larvae [1, 39]: 4.2
Percent survival of H. virescens larvae [1, 40]: 36%
Scores of damage caused by H. virescens larvae [1, 40]: 6.5
Percent survival of H. virescens larvae [1, 41]: 37%
Scores of damage caused by H. virescens larvae [1, 41]: 3.7
Percent survival of H. virescens larvae [1, 42]: 75%
Scores of damage caused by H. virescens larvae [1, 42]: 5.2
Percent survival of H. virescens larvae [1, 43]: 18%
Scores of damage caused by H. virescens larvae [1, 43]: 3.5
Percent survival of H. virescens larvae [1, 44]: 40%
Scores of damage caused by H. virescens larvae [1, 44]: 5.1
Percent survival of H. virescens larvae [1, 45]: 45%
Scores of damage caused by H. virescens larvae [1, 45]: 4.0
Percent survival of H. virescens larvae [1, 46]: 42%
Scores of damage caused by H. virescens larvae [1, 46]: 3.6
Solubility of Furathiocarb, ppm ([2]; 1000 ppm Alipal CO-433): 25 ppm
Solubility of Furathiocarb, ppm ([2]; 1000 ppm Alipal EP110): 16 ppm
Solubility of Furathiocarb, ppm ([2]; 1000 ppm Ethomeen T/15): 89 ppm
Solubility of Furathiocarb, ppm ([2]; 1000 ppm Pluronic F68): 15 ppm
Solubility of Furathiocarb, ppm ([2]; 1000 ppm Triton N101): 220 ppm
enhancement in the solubility (increase) ([2]; Ethomeen T/15 solution): 5 fold
Solubility of Furathiocarb, ppm ([2]; H₂O): 15 ppm
enhancement in the solubility (increase) ([2]; Triton N101 solution): 14 fold
